Where a name gives a salt, the structure may show the parent alone.
Key:
[1] = test system: Pneumocystis carinii; assay: Pneumocystis carinii pneumonia in immunosuppressed rats; type: in vivo, Sprague-Dawley rats; details: eliminating P. carinii cysts in four days, dexasone-immunosuppressed rats, microscopic analysis of stained lung slides
Experimental: In a representative study, the effectiveness of Compound A-1a was determined. Sprague-Dawley rats (weighing approximately 250 grams) were immunosuppressed with dexasone in the drinking water (2.0 mg/L) and maintained on a low protein diet for five weeks to induce the development of pneumocystis pneumonia from a latent infection. […] Six rats (weighing approximately 150 grams) were injected twice daily for four days intravenously (I.V.) via the tail vein with Compound A-1a in 0.25 ml of vehicle (distilled water). A vehicle control was also carried out. All animals continued to receive dexasone in the drinking water and low protein diet during the treatment period. At the completion of the treatment, all animals were sacrificed, the lungs were removed and processed, and the extent of disease determined by microscopic analysis of stained slides.
In a similar experiment, except that the rats were injected intraperitoneally (I.P.) twice daily for four days, the animals were sacrificed, the lungs removed and processed, and the extent of disease determined by microscopic analysis of stained slides.

[2] = Solubility in water; type: physicochemical

For CCC(C)CC(C)CCCCCCCCC(=O)NC1CC(O)C(O)NC(=O)C2C(O)CCN2C(=O)C(C(O)CC(N)=O)NC(=O)C(C(O)C(O)c2ccc(OP(=O)(O)O)cc2)NC(=O)C2CC(O)CN2C(=O)C(C(C)O)NC1=O (stereo not shown) [Compound A-1a, 1-[4,5-dihydroxy-N2-(10,12-dimethyl-1-oxotetradecyl)-ornithine-4-[3,4-dihydroxy-4′-O-phosphoryl-homotyrosine]-5-[3-hydroxyglutamine]-6-[3-hydroxyproline]-echinocandin B disodium salt], the ED₉₀ ([1]; injected twice daily for four days intravenously (I.V.) via the tail vein) was “approximately 0.6 mg/kg” and the solubility in water [2] was over 40 mg/mL.
For CCC(C)CC(C)CCCCCCCCC(=O)NC1CC(O)CNC(=O)C2C(O)CCN2C(=O)C(C(O)CC(N)=O)NC(=O)C(C(O)C(O)c2ccc(OP(=O)(O)O)cc2)NC(=O)C2CC(O)CN2C(=O)C(C(C)O)NC1=O (stereo not shown) [Compound A-2a, 1-[4-hydroxy-N2-(10,12-dimethyl-1-oxotetradecyl)-ornithine]-4-[3-hydroxy-4′-O-phosphoryl-homotyrosine]-5-[3-hydroxyglutamine]-6-[3-hydroxyproline]echinocandin B disodium salt], the ED₉₀ ([1]; injected intraperitoneally (I.P.) twice daily for four days) was “approximately 0.6 mg/kg” and the solubility [2] was over 85 mg/mL.

Reference: patent EP0448343A2, “Lipopeptide derivatives” (MERCK & CO. INC., priority 1990, dated 1991)
